Results published in patent US20250051319A1 (AUGUSTINE THERAPEUTICS, priority 2021, published 2025).
pIC50: −log10 of the molar value.

Target: catalytic domain 2 (CD2) of HDAC6 (Homo sapiens (Human), UniProt Q9UBN7)
Assay: Cellular target engagement assay - NanoBRET
Assay type: cell-based
Conditions: NanoLuc-HDAC6(CD2) in HEK293T cells, 2 hours, read-out: IC50 (HDAC6(CD2) interaction)
Method: NanoBRET target engagement was performed against the catalytic domain 2 (CD2) of HDAC6, with minor modifications of kit manufacturer protocol (Promega). Expression of exogenous NanoLuc-HDAC6(CD2) fusion and in HEK293T was achieved following transient transfection with FuGENE HD Transfection Reagent (Promega). The intracellular target engagement assay on HDAC6(CD2) was performed in a 384-well plate format with 8,000 cells per well and a tracer concentration of 0.125 μM or 0.600 μM for HDAC6(CD2). Compounds (dissolved in 100% DMSO) or DMSO (vehicle) were added either manually by diluting them in culture medium at 8× final assay concentration and then adding 5 μL to assay plate or in an automated way by adding […] compound to 5 μL OptiMEM without phenol red (Gibco) using the Echo650 (Labcyte). Tracer solution was added to the cells before seeding 35 μL cell/tracer mixture in the assay plate. The final reaction volume was 40 μL, final DMSO concentration was 1.4% (manual compound addition) or 1.25% (automated compound addition). Assay plates were incubated at 37° C. in a humidified atmosphere containing 5% C02 for 2 hours. The NanoBRET Nano-glo Substrate/Inhibitor was prepared by diluting NanoBRET Nano-Glo Substrate (1:332) and Extracellular Inhibitor (1:1000) in assay medium (Promega). […] BRET ratios were calculated from acceptor/donor signal ratio (mBRET=acceptor/donor*1000) and normalized for each plate. Percentage inhibition was calculated by setting the mBRET obtained with cells without tracer to 100%, while the mBRET obtained with uninhibited cells with tracer was set to 0%. IC50-values were calculated from the percentage inhibition with the log(inhibitor) vs. response—Variable slope (four parameters) nonlinear regression in GraphPad Prism software.

Chain of catalytic domain 2 (CD2) of HDAC6 (Q9UBN7 482-800): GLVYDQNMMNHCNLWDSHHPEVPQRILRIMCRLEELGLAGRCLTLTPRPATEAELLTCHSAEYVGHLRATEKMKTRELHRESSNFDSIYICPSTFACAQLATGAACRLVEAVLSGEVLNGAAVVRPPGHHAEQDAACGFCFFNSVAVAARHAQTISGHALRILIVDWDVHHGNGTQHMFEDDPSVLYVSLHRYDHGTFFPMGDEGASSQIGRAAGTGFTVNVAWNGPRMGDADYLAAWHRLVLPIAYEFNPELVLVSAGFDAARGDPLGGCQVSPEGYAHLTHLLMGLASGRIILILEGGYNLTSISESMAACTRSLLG

Row | Compound | pIC50
1 | COc1ccc2nc(C)nc(SCC(=O)c3ccc(CNC(=O)C4CC4)s3)c2c1 [Example 51, N-((5-(2-((6-methoxy-2-methylquinazolin-4-yl)thio)acetyl)thiophen-2-yl)methyl)cyclopropanecarboxamide] | 6.30 to 7.00
2 | COc1ccc2nc(C)nc(SCC(=O)c3ccc(CNC(=O)C(C)(C)C)s3)c2c1 [Example 17, N-((5-(2-((6-methoxy-2-methylquinazolin-4-yl)thio)acetyl)thiophen-2-yl)methyl)pivalamide] | 6.30 to 7.00
3 | CC(C)(C)C(=O)NCc1ccc(C(=O)CSc2nc(C3CCC3)nc3ccccc23)s1 [Example 14, N-((5-(2-((2-cyclobutylquinazolin-4-yl)thio)acetyl)thiophen-2-yl)methyl)pivalamide] | 6.30 to 7.00
4 | Cc1nc(SCC(=O)c2ccc(CNC(=O)CO)s2)c2cc(C3CC3)ccc2n1 [Compound 106, N-((5-(2-((6-cyclopropyl-2-methylquinazolin-4-yl)thio)acetyl)thiophen-2-yl)methyl)-2-hydroxyacetamide] | ≥ 7.00
5 | Cc1nc(SCC(=O)c2ccc(CNC(=O)CO)s2)c2cc(NCC3CC3)ccc2n1 [Compound 78, N-((5-(2-((6-((cyclopropylmethyl)amino)-2-methylquinazolin-4-yl)thio)acetyl)thiophen-2-yl)methyl)-2-hydroxyacetamide] | ≥ 7.00
6 | O=C(CSc1nc(C(F)(F)F)nc2ncccc12)c1ccc(CN2CCCC2=O)s1 [Example 157, 1-((5-(2-((2-(trifluoromethyl)pyrido[2,3-d]pyrimidin-4-yl)thio)acetyl)thiophen-2-yl)methyl)pyrrolidin-2-one] | ≥ 7.00
7 | Cn1cc2c(SCC(=O)c3ccc(CNC(=O)C(C)(C)C)s3)nc(C(F)(F)F)nc2n1 [Example 22, N-((5-(2-((2-methyl-6-(trifluoromethyl)-2H-pyrazolo[3,4-d]pyrimidin-4-yl)thio)acetyl)thiophen-2-yl)methyl)pivalamide] | ≥ 7.00
8 | O=C(CO)NCc1ccc(C(=O)CSc2nc3cc(C(F)(F)F)ccc3o2)s1 [Compound 105, 2-hydroxy-N-((5-(2-((5-(trifluoromethyl)benzo[d]oxazol-2-yl)thio)acetyl)thiophen-2-yl)methyl)acetamide] | 5.00 to 6.00

Second part, the compound after the results:

Row | pIC50 | Compound
9 | 6.30 to 7.00 | CC(=O)NCCc1ccc(C(=O)CSc2nc(C3CC3)nc3ccccc23)s1 [Example 101, N-(2-(5-(2-((2-cyclopropylquinazolin-4-yl)thio)acetyl)thiophen-2-yl)ethyl)acetamide]
10 | 6.00 to 6.30 | Cn1ncc2c(SCC(=O)c3ccc(CNC(=O)C(O)C(F)(F)F)s3)ncnc21 (centres unmarked) [Compound 42, 3,3,3-trifluoro-2-hydroxy-N-((5-(2-((1-methyl-1H-pyrazolo[3,4-d]pyrimidin-4-yl)thio)acetyl)thiophen-2-yl)methyl)propanamide]
11 | 6.30 to 7.00 | COc1ccc2nc(C)nc(SCC(=O)c3ccc(CNC(=O)C4CCCN4)s3)c2c1 (centres unmarked) [Compound 184, N-((5-(2-((6-methoxy-2-methylquinazolin-4-yl)thio)acetyl)thiophen-2-yl)methyl)pyrrolidine-2-carboxamide]
12 | ≥ 7.00 | Cc1nc(SCC(=O)c2ccc(CNC(=O)CO)s2)c2cc(N3CCC(F)(F)C3)ccc2n1 [Compound 84, N-((5-(2-((6-(3,3-difluoropyrrolidin-1-yl)-2-methylquinazolin-4-yl)thio)acetyl)thiophen-2-yl)methyl)-2-hydroxyacetamide]
13 | ≥ 7.00 | COc1ccc2nc(C(F)(F)F)nc(SCC(=O)c3ccc(CNC(=O)CO)s3)c2c1 [Compound 80, 2-hydroxy-N-((5-(2-((6-methoxy-2-(trifluoromethyl)quinazolin-4-yl)thio)acetyl)thiophen-2-yl)methyl)acetamide]
14 | 6.30 to 7.00 | COc1cccc2nc(C)nc(SCC(=O)c3ccc(CNC(=O)CO)s3)c12 [Compound 143, 2-hydroxy-N-((5-(2-((5-methoxy-2-methylquinazolin-4-yl)thio)acetyl)thiophen-2-yl)methyl)acetamide]
